Legend:
J82 = experiment: Cytotoxicity against human J82 cells after 3 days by MTT assay; assay type: functional, cell-based; conditions: J82, 72 h
SK-MES-1 = experiment: Cytotoxicity against human SK-MES-1 cells after 3 days by MTT assay; assay type: functional, cell-based; conditions: SK-MES-1, 72 h
AGS = experiment: Cytotoxicity against human AGS cells after 3 days by MTT assay; assay type: functional, cell-based; conditions: 72 h
HL-60 = experiment: Cytotoxicity against human HL-60 cells after 3 days by MTT assay; assay type: functional, cell-based; conditions: HL-60, 72 h
MRC5 = experiment: Cytotoxicity against human MRC5 cells after 3 days by MTT assay; assay type: cell-based; conditions: MRC5, 72 h

Compound	IC50 (J82) [µM]	IC50 (SK-MES-1) [µM]	IC50 (AGS) [µM]	IC50 (HL-60) [µM]	IC50 (MRC5) [µM]
Cn1c(=O)c2c3c(cnc2n(C)c1=O)C(=O)C=CC3=O	78.6	67.5	82.1	31.5	72.8
Cc1nc2c(c3c1C(=O)c1ccccc1C3=O)C(=O)CCC2	7.7	11.9	9.5	45.2	21.5
O=C1c2ccccc2C(=O)c2c1cnc1c2C(=O)CCC1	62.6	51.6	19	73.2	41.3
O=C1c2c(O)cccc2C(=O)c2c3c(cc(O)c21)CCCC3	69.9	73.7	41.6	> 100	> 100
Cc1nc2c(c3c1C(=O)C=CC3=O)C(=O)CCC2	5.6	3.5	22	46.5	20.5
O=C1c2cnc3c(c2C(=O)c2cccc(O)c21)C(=O)CCC3	9.2	3.7	1.6	5.6	11.3
CC1(C)CC(=O)c2c(ncc3c2C(=O)C=CC3=O)C1	95.3	> 100	75.2	43.6	39.9
Cn1c(=O)c2c3c(cnc2n(C)c1=O)C(=O)c1c(O)cccc1C3=O	9.2	8.1	5.9	15.9	6.8
Cc1nc2c(c3c1C(=O)c1c(O)cccc1C3=O)c(=O)n(C)c(=O)n2C	> 100	> 100	70	> 100	> 100
Cc1nc2c(c3c1C(=O)C=CC3=O)c(=O)n(C)c(=O)n2C	72.4	70.2	50.3	26.3	67.1
Cn1c(=O)c2c3c(cnc2n(C)c1=O)C(=O)c1ccccc1C3=O	8.7	8.9	3.5	20.4	12.6
Cc1nc2c(c3c1C(=O)c1ccccc1C3=O)c(=O)n(C)c(=O)n2C	24.9	5.2	19.1	> 100	> 100
CC1(C)CC(=O)c2c(ncc3c2C(=O)c2cccc(O)c2C3=O)C1	3.9	3.6	11.6	2.3	6.5
Cc1nc2c(c3c1C(=O)c1c(O)cccc1C3=O)C(=O)CC(C)(C)C2	15.7	4.6	7.4	11.8	5.5
O=C1c2cnc3c(c2C(=O)c2cccc(O)c21)CCCC3	20.5	36.8	36.8	45.8	63.6
Cc1nc2c(c3c1C(=O)c1c(O)cccc1C3=O)C(=O)CCC2	17.5	10.2	4.5	23.9	17.3
Cc1nc2c(c3c1C(=O)c1ccccc1C3=O)C(=O)CC(C)(C)C2	18.9	13.5	4.5	17.5	15.9
Cc1cnc2c(c1)C(=O)c1c(cnc3c1C(=O)CCC3)C2=O	1.8	1.7	1.2	2.4	0.73
O=C1C=CC(=O)c2c1cnc1c2C(=O)CCC1	38.8	25.7	19.4	15.8	20.2
